Data as given in US10112950B2, “Substituted imidazo[1,2-a]pyrazines as LSD1 inhibitors” (Incyte Corporation, priority 2014, dated 2018).

The compounds below were run against LSD-1 enzyme (Homo sapiens (Human), UniProt O60341) (assay: LANCE LSD1/KDM1A demethylase assay (LSD1 histone demethylase biochemical assay)). Details: 1 nM LSD-1 enzyme, 1 hour preincubation at 25° C., 0.4 μM Biotin-labeled Histone H3 peptide substrate.
Procedure: LSD1 Histone Demethylase Biochemical Assay
LANCE LSD1/KDM1A demethylase assay-10 μL of 1 nM LSD-1 enzyme (ENZO BML-SE544-0050) in the assay buffer (50 mM Tris, pH 7.5, 0.01% Tween-20, 25 mM NaCl, 5 mM DTT) were preincubated for 1 hour at 25° C. with 0.8 μL compound/DMSO dotted in black 384 well polystyrene plates. […] Reactions were stopped by addition of 10 μL 1× LANCE Detection Buffer (PerkinElmer CR97-100) supplemented with 1.5 nM Eu-anti-unmodified H3K4 Antibody (PerkinElmer TRF0404), and 225 nM LANCE Ultra Streptavidin (PerkinElmer TRF102) along with 0.9 mM Tranylcypromine-HCl (Millipore 616431). After stopping the reactions plates were incubated for 30 minutes and read on a PHERAstar FS plate reader (BMG Labtech).

Row | SMILES | IC50
1 | Cc1ccc(-c2c(-c3ccc(C#N)cc3)nc(OC[C@@H]3CCNC3)c3nc(CN(C)C)cn23)cc1 [Example 42, 4-{2-[(dimethylamino)methyl]-5-(4-methylphenyl)-8-[(3R)-pyrrolidin-3-ylmethoxy]imidazol[1,2-a]pyrazin-6-yl}benzonitrile] | ≤ 50 nM
2 | Cc1ccc(-c2c(-c3ccc(C#N)cc3)nc(OC[C@@H]3CCNC3)c3nccn23)cc1 [Example 1, 4-{5-(4-methylphenyl)-8-[(3R)-pyrrolidin-3-ylmethoxy]imidazo[1,2-a]pyrazin-6-yl}benzonitrile] | ≤ 50 nM
3 | CN1C(=O)COc2cc(-c3c(-c4ccc(C#N)cc4)nc(N4CCC(N(C)C)CC4)c4nccn34)ccc21 [Example 60, 4-[8-[4-(dimethylamino)piperidin-1-yl]-5-(4-methyl-3-oxo-3,4-dihydro-2H-1,4-benzoxazin-7-yl)imidazo[1,2-a]pyrazin-6-yl]benzonitrile] | ≤ 50 nM
4 | Cc1ccc(-c2c(-c3ccc(C#N)cc3)nc(OC[C@@H]3CCNC3)c3nc(C)cn23)cc1 [Example 33, 4-{2-methyl-5-(4-methylphenyl)-8-[(3R)-pyrrolidin-3-ylmethoxy]imidazo[1,2-a]pyrazin-6-yl}benzonitrile] | ≤ 50 nM
5 | Cc1ccc(-c2c(-c3ccc(C#N)cc3)nc(N3CCC4(CC3)CNC4)c3nccn23)cc1 [Example 20, 4-[8-(2,7-diazaspiro[3.5]non-7-yl)-5-(4-methylphenyl)imidazo[1,2-a]pyrazin-6-yl]benzonitrile] | ≤ 50 nM
6 | CN1C(=O)Cc2cc(-c3c(-c4ccc(C#N)cc4)nc(N4CCC(N(C)C)CC4)c4nccn34)cnc21 [Example 111, 4-[8-[4-(dimethylamino)piperidin-1-yl]-5-(1-methyl-2-oxo-2,3-dihydro-1H-pyrrolo[2,3-b]pyridin-5-yl)imidazo[1,2-a]pyrazin-6-yl]benzonitrile] | ≤ 50 nM
7 | Cc1ccc(-c2c(-c3ccc(C#N)cc3)nc(OC[C@@H]3CCN(C)C3)c3nc(CN(C)C)cn23)cc1 [Example 46, 4-(2-[(dimethylamino)methyl]-5-(4-methylphenyl)-8-{[(3R)-1-methylpyrrolidin-3-yl]methoxy}imidazo[1,2-a]pyrazin-6-yl)benzonitrile] | ≤ 50 nM
8 | N#Cc1ccc(-c2nc(OC[C@@H]3CCNC3)c3nccn3c2-c2ccc(N3CCCCC3)cc2)cc1 [Example 29, 4-{5-(4-piperidin-1-ylphenyl)-8-[(3R)-pyrrolidin-3-ylmethoxy]imidazo[1,2-a]pyrazin-6-yl}benzonitrile] | ≤ 50 nM
9 | COc1ncc(-c2c(-c3ccc(C#N)cc3)nc(N3CCC(N(C)C)CC3)c3nccn23)cc1O [Example 118, 4-[8-[4-(dimethylamino)piperidin-1-yl]-5-(5-hydroxy-6-methoxypyridin-3-yl)imidazo[1,2-a]pyrazin-6-yl]benzonitrile] | ≤ 50 nM
10 | Cc1ccc(-c2c(-c3ccc(C#N)cc3)nc(N3CCCN(C)CC3)c3nccn23)cc1 [Example 18, 4-[8-(4-methyl-1,4-diazepan-1-yl)-5-(4-methylphenyl)imidazo[1,2-a]pyrazin-6-yl]benzonitrile] | ≤ 50 nM
11 | Cc1ccc(-c2c(-c3ccc(C#N)cc3)nc(OC[C@@H]3CCNC3)c3nc(C(=O)N(C)C)cn23)cc1 [Example 38, 6-(4-cyanophenyl)-N,N-dimethyl-5-(4-methylphenyl)-8-[(3R)-pyrrolidin-3-ylmethoxy]imidazo[1,2-a]pyrazine-2-carboxamide] | ≤ 50 nM
12 | Cc1cc(-c2c(-c3ccc(C#N)cc3)nc(N3CCC(N(C)C)CC3)c3nccn23)cc(F)c1CO [Example 97, 4-{8-[4-(dimethylamino)piperidin-1-yl]-5-[3-fluoro-4-(hydroxymethyl)-5-methylphenyl]imidazo[1,2-a]pyrazin-6-yl}benzonitrile] | ≤ 50 nM
13 | CN1CCC[C@@H](COc2nc(-c3ccc(C#N)cc3)c(-c3cc(F)c4c(c3)C(O)CC4)n3ccnc23)C1 (stereo partly drawn) [Example 79, 4-(5-(7-fluoro-3-hydroxy-2,3-dihydro-1H-inden-5-yl)-8-{[(3R)-1-methylpiperidin-3-yl]methoxy}imidazo[1,2-a]pyrazin-6-yl)benzonitrile] | ≤ 50 nM
14 | CN(C)C1CCN(c2nc(-c3ccc(C#N)cc3)c(-c3ccc4c(c3)ncn4C)n3ccnc23)CC1 [Example 106, 4-[8-[4-(dimethylamino)piperidin-1-yl]-5-(1-methyl-1H-benzimidazol-5-yl)imidazo[1,2-a]pyrazin-6-yl]benzonitrile] | ≤ 50 nM
15 | Cc1cc(-c2c(-c3ccc(C#N)cc3)nc(OC[C@@H]3CCCN(C)C3)c3nccn23)cc(F)c1CO [Example 81, 4-(5-[3-fluoro-4-(hydroxymethyl)-5-methylphenyl]-8-{[(3R)-1-methylpiperidin-3-yl]methoxy}imidazo[1,2-a]pyrazin-6-yl)benzonitrile] | ≤ 50 nM
16 | Cc1ccc(-c2c(-c3ccc(C#N)cc3)nc(OC[C@@H]3CCCN(C)C3)c3nccn23)cc1C#N [Example 69, 5-(6-(4-cyanophenyl)-8-{[(3R)-1-methylpiperidin-3-yl]methoxy}imidazo[1,2-a]pyrazin-5-yl)-2-methylbenzonitrile] | ≤ 50 nM
17 | Cc1ccc(-c2c(-c3ccc(C#N)cc3)nc(OC[C@@H]3CCNC3)c3nc(CC#N)cn23)cc1 [Example 36, 4-{2-(cyanomethyl)-5-(4-methylphenyl)-8-[(3R)-pyrrolidin-3-ylmethoxy]imidazol[1,2-a]pyrazin-6-yl}benzonitrile] | ≤ 50 nM
18 | Cc1ncc(-c2c(-c3ccc(C#N)cc3)nc(N3CCC(N(C)C)CC3)c3nccn23)cc1O [Example 94, 4-[8-[4-(dimethylamino)piperidin-1-yl]-5-(5-hydroxy-6-methylpyridin-3-yl)imidazo[1,2-a]pyrazin-6-yl]benzonitrile] | ≤ 50 nM
19 | CN(C)C1CCN(c2nc(-c3ccc(C#N)cc3)c(-c3cc4oc(=O)n(C)c4cc3F)n3ccnc23)CC1 [Example 62, 4-[8-[4-(dimethylamino)piperidin-1-yl]-5-(5-fluoro-3-methyl-2-oxo-2,3-dihydro-1,3-benzoxazol-6-yl)imidazo[1,2-a]pyrazin-6-yl]benzonitrile] | ≤ 50 nM
20 | CN1CCC[C@@H](COc2nc(-c3ccc(C#N)cc3)c(-c3ccc4c(c3)CCC4O)n3ccnc23)C1 (stereo partly drawn) [Example 80, 4-(5-(1-hydroxy-2,3-dihydro-1H-inden-5-yl)-8-{[(3R)-1-methylpiperidin-3-yl]methoxy}imidazo[1,2-a]pyrazin-6-yl)benzonitrile] | ≤ 50 nM
21 | Cc1ccc(-c2c(-c3ccc(C#N)cc3)nc(OC[C@@H]3CCCN(C)C3)c3nccn23)cc1CO [Example 70, 4-(5-[3-(hydroxymethyl)-4-methylphenyl]-8-{[(3R)-1-methylpiperidin-3-yl]methoxy}imidazo[1,2-a]pyrazin-6-yl)benzonitrile] | ≤ 50 nM
22 | CN(C)C1CCN(c2nc(-c3ccc(C#N)cc3)c(-c3cnc4c(cnn4C)c3)n3ccnc23)CC1 [Example 58, 4-[8-[4-(dimethylamino)piperidin-1-yl]-5-(1-methyl-1H-pyrazolo[3,4-b]pyridin-5-yl)imidazo[1,2-a]pyrazin-6-yl]benzonitrile] | ≤ 50 nM
23 | CCn1c(=O)oc2cc(-c3c(-c4ccc(C#N)cc4)nc(N4CCC(N(C)C)CC4)c4nccn34)cnc21 [Example 105, 4-[8-[4-(dimethylamino)piperidin-1-yl]-5-(3-ethyl-2-oxo-2,3-dihydro[1,3]oxazolo[4,5-b]pyridin-6-yl)imidazo[1,2-a]pyrazin-6-yl]benzonitrile] | ≤ 50 nM
24 | Cc1ccc(-c2c(-c3ccc(C#N)cc3)nc(CCC3CCNC3)c3nccn23)cc1 (stereo not drawn) [Example 2, 4-[5-(4-methylphenyl)-8-(2-pyrrolidin-3-ylethyl)imidazo[1,2-a]pyrazin-6-yl]benzonitrile] | ≤ 50 nM
25 | CN(C)C1CCN(c2nc(-c3ccc(C#N)cc3)c(-c3ccc4nccnc4c3)n3ccnc23)CC1 [Example 101, 4-{8-[4-(dimethylamino)piperidin-1-yl]-5-quinoxalin-6-ylimidazo[1,2-a]pyrazin-6-yl}benzonitrile] | ≤ 50 nM
26 | Cc1ccc(-c2c(-c3ccc(C#N)cc3)nc(OC[C@@H]3CCCN(C)C3)c3nccn23)cc1CC#N [Example 91, 4-(5-[3-(cyanomethyl)-4-methylphenyl]-8-{[(3R)-1-methylpiperidin-3-yl]methoxy}imidazo[1,2-a]pyrazin-6-yl)benzonitrile] | ≤ 50 nM
27 | CN1CCC[C@@H](COc2nc(-c3ccc(C#N)cc3)c(-c3ccc(N(C)CC4CCCO4)nc3)n3ccnc23)C1 (stereo partly drawn) [Example 52, 4-(8-{[(3R)-1-methylpiperidin-3-yl]methoxy}-5-{6-[methyl(tetrahydrofuran-2-ylmethyl)amino]pyridin-3-yl}imidazo[1,2-a]pyrazin-6-yl)benzonitrile] | ≤ 50 nM
28 | C[C@@H](O)c1nc2cc(-c3c(-c4ccc(C#N)cc4)nc(N4CCC(N(C)C)CC4)c4nccn34)ccc2n1C [Example 113, 4-(8-[4-(dimethylamino)piperidin-1-yl]-5-{2-[(1R)-1-hydroxyethyl]-1-methyl-1H-benzimidazol-5-yl}imidazo[1,2-a]pyrazin-6-yl)benzonitrile] | ≤ 50 nM
29 | Cc1ccc(-c2c(-c3ccc(C#N)cc3)nc(OC[C@@H]3CCNC3)c3nc(CO)cn23)cc1 [Example 41, 4-{2-(hydroxymethyl)-5-(4-methylphenyl)-8-[(3R)-pyrrolidin-3-ylmethoxy]imidazol[1,2-a]pyrazin-6-yl}benzonitrile] | ≤ 50 nM
30 | Cc1ccc(-c2c(-c3ccc(C#N)cc3)nc(OC[C@@H]3CCNC3)c3nc(C(=O)NC4CN(C)C4)cn23)cc1 [Example 40, 6-(4-cyanophenyl)-N-(1-methylazetidin-3-yl)-5-(4-methylphenyl)-8-[(3R)-pyrrolidin-3-ylmethoxy]imidazol[1,2-a]pyrazine-2-carboxamide] | ≤ 50 nM
